Source: PubChem BioAssay (NCI)
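Where inhibition never reached the appropriate level, the endpoint shown equals the highest concentration tested. Otherwise, values were interpolated linearly from a five-concentration, 48-hour dose response in 96-well plates. GI50 is the concentration that inhibits growth by half. TGI is the concentration that stops growth completely.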

Columns and labels:
Test in all cases: growth of human tumour cells (NCI), 48 h
M14 melanoma = system: M14 melanoma
MDA-MB-435 = system: MDA-MB-435
ACHN renal = system: ACHN renal
A549 NSCLC = system: A549 NSCLC
RPMI-8226 leukemia = system: RPMI-8226 leukemia
OVCAR-4 ovarian = system: OVCAR-4 ovarian
KM12 colon = system: KM12 colon
NCI/ADR-RES ovarian = system: NCI/ADR-RES ovarian
IGROV1 ovarian = system: IGROV1 ovarian
A498 renal = system: A498 renal

Row | SMILES | TGI (M14 melanoma) | TGI (MDA-MB-435) | TGI (ACHN renal) | TGI (A549 NSCLC) | TGI (RPMI-8226 leukemia) | TGI (OVCAR-4 ovarian) | TGI (KM12 colon) | TGI (NCI/ADR-RES ovarian) | TGI (IGROV1 ovarian) | TGI (A498 renal) | GI50 (M14 melanoma) | GI50 (MDA-MB-435) | GI50 (ACHN renal) | GI50 (A549 NSCLC) | GI50 (RPMI-8226 leukemia) | GI50 (OVCAR-4 ovarian) | GI50 (KM12 colon) | GI50 (NCI/ADR-RES ovarian) | GI50 (IGROV1 ovarian) | GI50 (A498 renal)
1 | O=C1/C(=C2\SCC(=O)N2c2ccccc2)SC(=S)N1c1ccccc1 | > 100 µM | > 100 µM | 97.7 µM | > 100 µM | > 100 µM | 66.9 µM | > 100 µM | 90.7 µM | 52.7 µM | > 100 µM |  |  |  |  |  |  |  |  |  | 
2 | CC(C)C[C@H](NC(=O)[C@H](CCc1ccccc1)NC(=O)c1ccc2ccccc2n1)B(O)O | 0.0289 µM | < 0.0123 µM | 0.176 µM | 13.4 µM | > 39.1 µM | 3.09 µM | 0.295 µM | 4.66 µM | 0.972 µM | 4.38 µM |  |  |  |  |  |  |  |  |  | 
3 | O=[N+]([O-])c1cc(Cl)ccc1S(=O)(=O)c1cc(Cl)cc2c1NCCC2 | > 100 µM | > 100 µM | > 100 µM | > 100 µM | > 100 µM | > 100 µM | > 100 µM | > 100 µM | > 100 µM | > 100 µM |  |  |  |  |  |  |  |  |  | 
4 | Cc1nc2ccccc2cc1C[N+]12CN3CN(CN(C3)C1)C2 | 39.1 µM | 49.3 µM | 38.5 µM | > 100 µM | > 100 µM | 64.9 µM | 45.8 µM | 56.3 µM | > 100 µM | 47.8 µM |  |  |  |  |  |  |  |  |  | 
5 | OC1(c2ccc(Cl)cc2)c2ccccc2C2=NCc3ccccc3CN21 (stereo not given) | 8.08 µM | 22.7 µM | 17.8 µM | 19.2 µM | > 48.6 µM | 25.6 µM | 11.6 µM | 26.2 µM | 9.63 µM | 30.2 µM |  |  |  |  |  |  |  |  |  | 
6 | CC12CCC(C1)C(C)(C)C2OC(=O)c1ccccc1C(=O)O (stereo not given) | > 100 µM | > 100 µM | > 100 µM | > 100 µM | > 100 µM | > 100 µM | > 100 µM | > 100 µM | > 100 µM | > 100 µM |  |  |  |  |  |  |  |  |  | 
7 | O=C(NNCc1ccccc1O)c1ccccc1O | 24.2 µM | > 100 µM | > 100 µM | > 100 µM | > 100 µM | > 100 µM | > 100 µM | 40.4 µM | > 100 µM | > 100 µM |  |  |  |  |  |  |  |  |  | 
8 | Cc1nc2sccn2c1C(=O)OCCOCCOCCOCCOC(=O)c1c(C)nc2sccn12 | > 100 µM | > 100 µM | > 100 µM | > 100 µM | > 100 µM | > 100 µM | > 100 µM | > 100 µM | > 100 µM | > 100 µM |  |  |  |  |  |  |  |  |  | 
9 | CN1N(c2ccccc2)C(=O)C2=NC=C(C#N)C(=N)C21C (stereo not given) | > 100 µM | > 100 µM | > 100 µM | > 100 µM | > 100 µM | > 100 µM | > 100 µM | > 100 µM | > 100 µM | > 100 µM |  |  |  |  |  |  |  |  |  | 
10 | O=[N+]([O-])c1ccc(-[n+]2ccc3ccccc3c2)c([N+](=O)[O-])c1 | 8.69 µM | 7.07 µM | 4.44 µM | 34.1 µM | 6.68 µM | 3.04 µM | 27.7 µM | 11.9 µM | 8.61 µM | 28 µM |  |  |  |  |  |  |  |  |  | 
11 | C/C(NC(=O)c1ccccc1)=C(/C(=O)c1ccccc1)[C@@H]1OC(C)(C)O[C@@H]1[C@H]1COC(C)(C)O1 | > 100 µM | 39.9 µM | > 100 µM | > 100 µM | 47.7 µM | > 100 µM | > 100 µM | > 100 µM | 42 µM | > 100 µM |  |  |  |  |  |  |  |  |  | 
12 | CN1CCN(c2c(O)c3c(c(O)c2Cl)C(=O)C=CC3=O)CC1 | 0.843 µM | 0.538 µM | 0.806 µM | 4.27 µM | 2.34 µM | 1.37 µM | 3.93 µM | 2.65 µM | 2.6 µM | 4.54 µM |  |  |  |  |  |  |  |  |  | 
13 | CC(C)(C)OC(=O)NCCNC(=O)CN(CC(=O)O)C1CCCCC1N(CC(=O)O)CC(=O)O (stereo not given) | > 100 µM | > 100 µM | > 100 µM | > 100 µM | > 100 µM | > 100 µM | > 100 µM | > 100 µM | > 100 µM | > 100 µM |  |  |  |  |  |  |  |  |  | 
14 | c1ccc(-c2nc3ccccc3n3nnnc23)cc1 | > 100 µM | > 100 µM | > 100 µM | > 100 µM | > 100 µM | > 100 µM | > 100 µM | > 100 µM | > 100 µM | > 100 µM |  |  |  |  |  |  |  |  |  | 
15 | COC1=C(OC)C(=O)C(Cc2c(Cl)nc3n2CCS3)=C(C)C1=O | 27.2 µM | 29.2 µM | 33.2 µM | 40.6 µM | 26.9 µM | 21 µM | 30.8 µM | 34.2 µM | 30.5 µM | 35.6 µM |  |  |  |  |  |  |  |  |  | 
16 | Nc1ccc(-c2nc3cc(F)ccc3s2)cc1 | > 100 µM | > 100 µM | > 61.7 µM | > 100 µM | > 100 µM | > 100 µM | > 100 µM | > 100 µM | > 77.9 µM | > 100 µM |  |  |  |  |  |  |  |  |  | 

Row | SMILES | TGI (M14 melanoma) | TGI (MDA-MB-435) | TGI (ACHN renal) | TGI (A549 NSCLC) | TGI (RPMI-8226 leukemia) | TGI (OVCAR-4 ovarian) | TGI (KM12 colon) | TGI (NCI/ADR-RES ovarian) | TGI (IGROV1 ovarian) | TGI (A498 renal) | GI50 (M14 melanoma) | GI50 (MDA-MB-435) | GI50 (ACHN renal) | GI50 (A549 NSCLC) | GI50 (RPMI-8226 leukemia) | GI50 (OVCAR-4 ovarian) | GI50 (KM12 colon) | GI50 (NCI/ADR-RES ovarian) | GI50 (IGROV1 ovarian) | GI50 (A498 renal)
17 | Clc1ccc(-c2nn3c(C45CC6CC(CC(C6)C4)C5)nnc3s2)cc1 | > 100 µM | > 100 µM | > 100 µM | > 100 µM | > 100 µM | > 100 µM | > 100 µM | > 100 µM | > 100 µM | > 100 µM |  |  |  |  |  |  |  |  |  | 
18 | Cc1ccsc1/C=N/Nc1ccccn1 | > 100 µM | > 100 µM | > 100 µM | > 100 µM | 56.6 µM | > 100 µM | > 100 µM | > 100 µM | > 100 µM | > 100 µM |  |  |  |  |  |  |  |  |  | 
19 | COC1=CCC2=C(CCN(C(=O)C3CCC3)C2Cc2ccc(OC)c(O)c2)C1 (stereo not given) | 78.9 µM | 10.5 µM | > 100 µM | > 100 µM | > 100 µM | > 100 µM | > 100 µM | 41.4 µM | > 100 µM | 84.5 µM |  |  |  |  |  |  |  |  |  | 
20 | CN(/N=C/c1ccc(Cl)c(Cl)c1)C1=NCCN1 | 31.6 µM | 44.6 µM | > 100 µM | > 100 µM | 60.9 µM | > 100 µM | 67.6 µM | > 100 µM | > 100 µM | 28.1 µM |  |  |  |  |  |  |  |  |  | 
21 | N#CI1OC(C(F)(F)F)(C(F)(F)F)c2ccccc21 | 36.2 µM | 38.4 µM | 36.9 µM | > 100 µM | > 100 µM | 30.6 µM | 35.5 µM | 40.3 µM | 31.8 µM | > 100 µM |  |  |  |  |  |  |  |  |  | 
22 | COc1cc(C2c3cc4c(cc3OC(N3CCOCC3)C2C)OCO4)cc(OC)c1OC(C)=O (stereo not given) | > 56.8 µM | 14.4 µM | > 100 µM | > 100 µM | > 100 µM | > 100 µM | > 100 µM | 30.8 µM | > 100 µM | 81.3 µM |  |  |  |  |  |  |  |  |  | 
23 | COC1CCC(n2c([C@@H]3CCCC(=O)N3c3ccc(F)c(F)c3)nc3cc(-c4c(C)noc4C)ccc32)CC1 (stereo not given in full) | 19.9 µM | 82.7 µM | 21.1 µM | 69.5 µM | 8.21 µM | 26.5 µM | 30.4 µM | 30 µM | 25.4 µM | 20 µM | 1.87 µM | 8.01 µM | 4.78 µM | 11.8 µM | 0.703 µM | 0.782 µM | 14 µM | 13.5 µM | 4.61 µM | 5.99 µM
24 | O=C(O)C(CO)NC(=O)C1C(C(=O)O)C(c2ccccc2[N+](=O)[O-])C=C(c2ccco2)N1c1ccncc1 (stereo not given) | 13.9 µM | 16.8 µM | 3.67 µM | 11.1 µM | 4.22 µM | 25.3 µM | 3.35 µM | 59 µM | 4.15 µM | 24.8 µM |  |  |  |  |  |  |  |  |  | 
25 | O=C1C(CN2CCCC2)CCCC1CN1CCCC1 (stereo not given) | 3.3 µM | 7.43 µM | 3.42 µM | 39.3 µM | 3.97 µM | 20.3 µM | 39.8 µM | 18.9 µM | 32.4 µM | 38.7 µM |  |  |  |  |  |  |  |  |  | 
26 | CC1=CC(=O)/C(=C/N2CCNC2=S)C(=O)O1 | > 100 µM | > 100 µM | > 100 µM | > 100 µM | > 100 µM | > 100 µM | > 100 µM | > 100 µM | > 100 µM | > 100 µM |  |  |  |  |  |  |  |  |  | 
27 | O=C(CC(=O)Nc1ccccc1Cl)NNC(Sc1ccccc1)c1cc(N=Nc2ccc(Br)cc2)ccc1O (stereo not given) | 2.68 µM | > 10 µM | > 10 µM | > 10 µM | > 10 µM | 5.98 µM | 5.04 µM | 5.61 µM | 5.53 µM | 5.6 µM |  |  |  |  |  |  |  |  |  | 
28 | CC(CN(C)C)C(=O)/C=C/c1ccc(Cl)c(Cl)c1 (stereo not given) | 5.13 µM | 3.33 µM | 3.92 µM | 13.8 µM | > 100 µM | 19 µM | 3.23 µM | 79.6 µM | 3.73 µM | 3.69 µM |  |  |  |  |  |  |  |  |  | 
29 | Cc1nc(N)nc(N)c1N1CCN(Cc2ccccc2)CC1 | > 100 µM | > 100 µM | > 100 µM | > 100 µM | > 95.6 µM | > 100 µM | > 100 µM | > 92.6 µM | > 100 µM | > 100 µM |  |  |  |  |  |  |  |  |  | 
30 | CSc1nc(=O)c(C#N)c(-c2ccccc2)n1C1OC(COC(C)=O)C(OC(C)=O)C(OC(C)=O)C1OC(C)=O (stereo not given) | > 100 µM | > 100 µM | > 100 µM | > 100 µM | > 100 µM | > 100 µM | > 100 µM | > 100 µM | > 100 µM | > 100 µM |  |  |  |  |  |  |  |  |  | 
31 | CCOC(=O)/C=C(/C(=O)OCC)n1ccc(=O)[nH]c1=O | 13.2 µM | 24.4 µM | 14.6 µM | 33.8 µM | 11.3 µM | 38.7 µM | 34.8 µM | 40.4 µM | 31.1 µM | 38.2 µM |  |  |  |  |  |  |  |  |  | 
